Source: the supplement of paper PMC10307832

What was measured:
Assay in all cases: relative viability (nuclei count vs DMSO), 5 days (fraction); higher = more cells survive
BMX-IN-1 + Navitoclax = compound: C=CC(=O)Nc1cc(-n2c(=O)ccc3cnc4ccc(-c5ccc(NS(C)(=O)=O)cc5)cc4c32)ccc1C [BMX-IN-1] + CC1(C)CCC(c2ccc(Cl)cc2)=C(CN2CCN(c3ccc(C(=O)NS(=O)(=O)c4ccc(N[C@H](CCN5CCOCC5)CSc5ccccc5)c(S(=O)(=O)C(F)(F)F)c4)cc3)CC2)C1 [Navitoclax] (partner 0.5 µM)
Procedure, shortened: (§1)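 Relative viability is defined as nuclei in treated wells over nuclei in vehicle wells. Duplicate plates were run and medians reported. Lung cancer cell lines in 1536-well plates were dosed by pin tool one day after seeding, with one drug or with a fixed anchor-drug dose plus five library-drug doses (not always all listed) in √10 steps, and nuclei were counted after 5 days.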

PAC-1 + Trametinib = compound: C=CCc1cccc(/C=N/NC(=O)CN2CCN(Cc3ccccc3)CC2)c1O [PAC-1] + CC(=O)Nc1cccc(-n2c(=O)n(C3CC3)c(=O)c3c(Nc4ccc(I)cc4F)n(C)c(=O)c(C)c32)c1 [Trametinib] (partner 0.02 µM)
Procedure, shortened: as §1

BMX-IN-1 + Alpelisib = compound: C=CC(=O)Nc1cc(-n2c(=O)ccc3cnc4ccc(-c5ccc(NS(C)(=O)=O)cc5)cc4c32)ccc1C [BMX-IN-1] + Cc1nc(NC(=O)N2CCC[C@H]2C(N)=O)sc1-c1ccnc(C(C)(C)C(F)(F)F)c1 [Alpelisib] (partner 2 µM)
Procedure, shortened: as §1

BMX-IN-1 + Foretinib = compound: C=CC(=O)Nc1cc(-n2c(=O)ccc3cnc4ccc(-c5ccc(NS(C)(=O)=O)cc5)cc4c32)ccc1C [BMX-IN-1] + COc1cc2c(Oc3ccc(NC(=O)C4(C(=O)Nc5ccc(F)cc5)CC4)cc3F)ccnc2cc1OCCCN1CCOCC1 [Foretinib] (partner 0.25 µM)
Procedure, shortened: as §1

PAC-1 + Dasatinib = compound: C=CCc1cccc(/C=N/NC(=O)CN2CCN(Cc3ccccc3)CC2)c1O [PAC-1] + Cc1nc(Nc2ncc(C(=O)Nc3c(C)cccc3Cl)s2)cc(N2CCN(CCO)CC2)n1 [Dasatinib] (partner 0.075 µM)
Procedure, shortened: as §1

Row | Cell Line | relative viability (BMX-IN-1 + Navitoclax; first compound 0.02 µM) | relative viability (BMX-IN-1 + Navitoclax; first compound 0.2 µM) | relative viability (BMX-IN-1 + Navitoclax; first compound 0.6325 µM) | relative viability (BMX-IN-1 + Navitoclax; first compound 2 µM) | relative viability (PAC-1 + Trametinib; first compound 0.02 µM) | relative viability (PAC-1 + Trametinib; first compound 0.06325 µM) | relative viability (PAC-1 + Trametinib; first compound 0.2 µM) | relative viability (PAC-1 + Trametinib; first compound 2 µM) | relative viability (BMX-IN-1 + Alpelisib; first compound 0.02 µM) | relative viability (BMX-IN-1 + Alpelisib; first compound 0.2 µM) | relative viability (BMX-IN-1 + Alpelisib; first compound 0.6325 µM) | relative viability (BMX-IN-1 + Alpelisib; first compound 2 µM) | relative viability (BMX-IN-1 + Foretinib; first compound 0.02 µM) | relative viability (BMX-IN-1 + Foretinib; first compound 0.2 µM) | relative viability (BMX-IN-1 + Foretinib; first compound 0.6325 µM) | relative viability (BMX-IN-1 + Foretinib; first compound 2 µM) | relative viability (PAC-1 + Dasatinib; first compound 0.02 µM) | relative viability (PAC-1 + Dasatinib; first compound 0.06325 µM) | relative viability (PAC-1 + Dasatinib; first compound 0.2 µM) | relative viability (PAC-1 + Dasatinib; first compound 2 µM)
1 | NCI-H1915 | 0.808 | 0.793 | 0.764 | 0.777 | 0.304 | 0.303 | 0.303 | 0.33 | 1.08 | 1.03 | 1.04 | 1.13 | 1.16 | 1.25 | 1.12 | 1.07 | 0.313 | 0.336 | 0.317 | 0.29
2 | BEN | 0.066 | 0.0691 | 0.224 | 0.0676 | 1.08 | 1.09 | 1.17 | 0.923 | 1.22 | 1.32 | 0.938 | 1.04 | 0.635 | 0.698 | 0.619 | 0.819 | 0.272 | 0.366 | 0.318 | 0.327
3 | H3255 | 0.51 | 0.595 | 0.544 | 0.633 | 0.713 | 0.746 | 0.587 | 0.512 | 0.798 | 0.657 | 0.815 | 0.712 | 0.859 | 0.989 | 0.925 | 0.99 | 0.361 | 0.288 | 0.284 | 0.33
4 | NCI-H1395 | 0.972 | 1.09 | 1.07 | 1.14 | 1.1 | 1 | 0.976 | 0.974 | 1.07 | 1.05 | 1.15 | 0.962 | 1.1 | 0.968 | 0.949 | 0.908 | 0.403 | 0.476 | 0.387 | 0.422
5 | NCI-H1437 | 1.3 | 1.33 | 1.07 | 1.18 | 0.555 | 0.511 | 0.494 | 0.525 | 1.26 | 0.953 | 1.1 | 1.05 | 1.34 | 1.27 | 1.31 | 1.32 | 0.298 | 0.425 | 0.459 | 0.278
6 | NCI-H1755 | 1.01 | 1.05 | 1.07 | 1.03 | 0.815 | 0.767 | 0.783 | 0.733 | 1.01 | 1.23 | 1.06 | 0.965 | 0.833 | 0.891 | 1.05 | 0.905 | 0.426 | 0.446 | 0.384 | 0.443
7 | SK-LU-1 | 1 | 0.69 | 0.789 | 1.02 | 0.495 | 0.481 | 0.484 | 0.584 | 1 | 1.05 | 0.964 | 1.06 | 0.92 | 1.04 | 0.785 | 0.76 | 0.208 | 0.173 | 0.185 | 0.181
8 | HOP-62 | 1.42 | 1.17 | 1.21 | 1.12 | 0.387 | 0.404 | 0.388 | 0.406 | 0.813 | 0.918 | 0.926 | 0.914 | 1.26 | 1.27 | 1.09 | 1.1 | 0.665 | 0.68 | 0.623 | 0.641
9 | NCI-H2228 | 0.954 | 0.853 | 1.44 | 0.969 | 0.394 | 0.889 | 0.433 | 0.648 | 0.906 | 1.04 | 1.16 | 0.822 | 1.19 | 1.08 | 1.03 | 0.916 | 0.506 | 0.505 | 0.537 | 0.501
10 | SW 1573 | 1.22 | 1.39 | 1.21 | 0.808 | 0.492 | 0.623 | 0.528 | 0.625 | 0.913 | 0.882 | 0.8 | 0.798 | 0.953 | 0.947 | 1.02 | 0.337 | 0.537 | 0.561 | 0.44 | 0.52
11 | PC-14 | 1.02 | 1.29 | 1.01 | 1.06 | 0.815 | 0.704 | 0.781 | 0.793 | 1.08 | 1.03 | 0.981 | 0.983 | 1.04 | 1.05 | 1.16 | 0.922 | 0.248 | 0.265 | 0.279 | 0.249
12 | EMC-BAC-2 | 1.41 | 1.35 | 1.08 | 1.19 | 1.07 | 0.925 | 0.913 | 0.849 | 0.891 | 0.873 | 0.783 | 0.625 | 1.04 | 0.984 | 1.06 | 0.985 | 0.388 | 0.303 | 0.346 | 0.326
13 | NCI-H520 | 1.35 | 1.4 | 1.16 | 1.03 | 0.747 | 0.746 | 0.64 | 0.797 | 1.26 | 0.922 | 0.873 | 0.753 | 0.825 | 0.879 | 0.864 | 0.825 | 0.172 | 0.213 | 0.19 | 0.225
14 | NCI-H2170 | 0.742 | 0.634 | 0.689 | 0.623 | 0.888 | 0.958 | 0.932 | 0.859 | 0.91 | 0.859 | 0.921 | 0.821 | 1.23 | 0.975 | 0.993 | 0.987 | 0.499 | 0.506 | 0.625 | 0.712
15 | A-427 | 1.04 | 0.987 | 0.971 | 1.01 | 0.767 | 0.778 | 0.817 | 0.796 | 1.04 | 1.11 | 1.04 | 1.14 | 1.1 | 1.24 | 1.02 | 0.97 | 0.77 | 0.665 | 0.666 | 0.697
